In patent US11498933B2, “Prodrug compositions” (The University of Liverpool, priority 2017, dated 2022):

What was measured:
[1] = Kinetic analysis of 5′-acyloxy/alkoxycarbonyl prodrug hydrolysis in human liver S9 (HPLC-UV); assay type: in vitro ADME; details: for half-lives in human liver S9: FIG. 7; for Km: both sexes, human, pooled human liver S9, pH 7.4, 17: 5′-acetoxy hydrolysis, 1.0 mg/mL S9, 5: 5′-pentoxycarbonyl hydrolysis, 3.0 mg/mL S9, 37° C.; for Km / Intrinsic Clearance / Vmax: conversion to compound 13; for Intrinsic Clearance / Vmax: 17: 1.0 mg/mL S9, 5: 3.0 mg/mL S9
Procedure: A reaction mixture containing Tris buffer (30 mM, pH 7.4) and mixed pooled gender liver S9 (1 mg/mL, 3.0 mg/mL, or 4.0 mg/mL) are pre-incubated at 37° C. for 5 minutes. To the reaction mixtures is added compound 17 which initiates the hydrolysis reaction (concentrations of compound 17 ranging from 200 μM to 10 mM). […] The supernatant was diluted into Tris buffer (30 mM, pH 7.4) to yield samples with concentrations appropriate for analysis. The samples were analyzed by HPLC with UV detection using the following method (0% to 100% acetonitrile in Et3NHOAc (50 mM, pH 8) gradient) over 10 minutes at a flow rate of 3 mL min^−1, held at 100% acetonitrile for 3 minutes, ramped down to 5% acetonitrile over 0.2 minutes and then held for 2.8 minutes.
Kinetic analysis data for the conversion of compound 17 to compound 13 via 5′-acetoxy hydrolysis is illustrated in FIG. 5. The hydrolysis was performed under conditions in which the pentyl carbamate group of compound 17 is stable in 1.0 mg/mL pooled mixed gender human liver S9. It was observed that the intrinsic clearance for the 5′-acetoxy hydrolysis is greater than that for the carbamate group hydrolysis.
Kinetic analysis data for the conversion of compound 5 to compound 13 via 5′-pentoxycarbonyl hydrolysis is illustrated in FIG. 6 (concentrations of compound 5 ranging from 200 μM to 10 mM). The hydrolysis was performed under conditions in which the pentyl carbamate group is stable in 3.0 mg/mL pooled mixed gender human liver S9. It was observed that the intrinsic clearance for 5′-pentoxycarbonyl hydrolysis is greater than that for carbamate group hydrolysis but reduced when compared to the intrinsic clearance of the 5′-acetoxy hydrolysis. Kinetic analysis data for the conversion of compound 17 to compound 13 via 5′-acetoxy hydrolysis and the conversion of compound 5 to compound 13 via 5′-pentoxycarbonyl hydrolysis is presented in Table 1 below.
Kinetic analysis data for compounds 20 and 21 in human liver S9 was generated in accordance with the general procedure described above.

CYP enzymes = test: Cytochrome P450 activity in human liver microsomes; details: 1 mM, 2.0 mg/mL pooled mixed gender human liver microsomes
Procedure: (§1) Reaction mixtures containing phosphate buffer (100 mM, pH 7.4), mixed pooled gender human liver microsomes (2.0 mg/mL), NADP+ (1 mM), glucose-6-phosphate (5 mM), and glucose-6-phosphate dehydrogenase (1.5 Unit/mL) were pre-incubated at 37° C. for 5 minutes. The reactions were then initiated via the addition of emtricitabine or compound 13 (1 mM). After incubation at 37° C., aliquots were taken at each time point and quenched in two volumes of ice-cold methanol. The quenched aliquots were then centrifuged at 14000 rpm for 4 minutes. The supernatant was then diluted into phosphate buffer (100 mM, pH 7.4) to yield samples with concentrations suitable for analysis. The samples were analyzed by HPLC with UV detection using the following method (0% to 100% acetonitrile in Et3NHOAc (50 mM, pH 8) gradient) over 10 minutes at a flow rate of 3 mL min^−1, held at 100% acetonitrile for 3 minutes, ramped down to 5% acetonitrile over 0.2 minutes and then held for 2.8 minutes.

CD4+ T cells = test: Viability staining (Zombie Red) in single-round infectivity assay
Procedure: Peripheral blood mononuclear cells were isolated from healthy blood donors using Hypaque-Ficoll gradient centrifugation. CD4+ T cells were selected by magnetic beads (Miltenyi) and activated using anti-CD3 and anti-CD28 antibodies. Activated cells were seeded onto a 96-well plate at a concentration of 1×10^5 cells/well in RPMI1640 supplemented with 10% FBS, cytokine-rich supernatant, and 50% heat-inactivated human serum. Test compounds were added at this step and maintained throughout the culture. Cells were incubated at 37° C. for 21 hours. Pseudotype (GFP-tagged) HIV was then added to the culture via spinoculation and incubated for 3 days. Cells were then washed and stained with Zombie Red viability stain. Infectivity was quantified using flow cytometry.

UGT enzymes = test: UGT activity in human liver S9; details: 1 mM, human liver S9 2.0 mg/mL, UDPGA 8 mM
Procedure: as §1, with “S9” for “microsomes”, “MgCl2 (10” for “NADP+ (1”, “UDPGA (8” for “glucose-6-phosphate (5”, “D-saccharic acid-1,4-lactone (2 mM)” for “glucose-6-phosphate dehydrogenase (1.5 Unit/mL)”, “by” for “via”

[2] = Prodrug hydrolysis in rat plasma; assay type: in vitro ADME; details: 37° C., depletion of starting material, read-out: Rat Plasma t1/2
Procedure: (§2) Reaction mixtures containing either mouse liver S9 (20.8 mg/mL), mouse plasma, rat liver S9 (1 mg/mL) and phosphate buffer (100 mM, pH 7.4), rat plasma, human liver S9 (1.0 mg/mL) and phosphate buffer (100 mM, pH 7.4) or human plasma were pre-incubated at 37° C. for 5 minutes. Reactions were then initiated by addition of compounds 4, 8 or 16 (1 mM in mouse, 0.5 mM in rat and human). […] The samples were analyzed by HPLC with UV detection and the resulting hydrolysis data can be seen in FIG. 12.
(§3) In all cases, the half-lives for compound 4 are shorter than that of compound 8. […] In all cases, the half-life indicates the depletion of starting material compounds. […] In human compartments, only carbonate cleavage is observed.

[3] = Prodrug hydrolysis in rat liver S9; assay type: in vitro ADME; details: pH 7.4, rat liver S9 1 mg/mL, 37° C., depletion of starting material, read-out: Rat Liver t1/2
Procedure: as §2, §3

[4] = Prodrug hydrolysis in human liver S9; assay type: in vitro ADME; details: pH 7.4, human liver S9 1.0 mg/mL, 37° C., depletion of starting material, read-out: Human Liver t1/2
Procedure: as §2, §3

[5] = Prodrug hydrolysis in human plasma; assay type: in vitro ADME; details: 37° C., depletion of starting material, read-out: Human Plasma t1/2
Procedure: as §2, §3

[6] = Half-life measurements in human plasma (HPLC-UV); assay type: in vitro ADME; details: human, plasma, 37° C., hydrolysis through two potential pathways, read-out: hydrolysis half-life in human plasma (converted)
Procedure: To evaluate the hydrolysis rates of emtricitabine compounds 9-16, HPLC coupled with UV detection was used with the following method (0% to 100% acetonitrile in Et3NHOAc (50 mM, pH 8) gradient) over 10 minutes at a flow rate of 3 mL min^−1, held at 100% acetonitrile for 3 minutes, ramped down to 5% acetonitrile over 0.2 minutes and then held for 2.8 minutes. Male human plasma (Bioreclamation) or female human skeletal muscle S9 (7.96 mg/mL, Bioreclamation) was pre-incubated at 37° C. for 5 minutes. Compounds 9-16 (1 mM) were added and the reaction was incubated at 37° C. […] The supernatant was diluted 10 fold into Tris buffer (30 mM, pH 7.4) and injected onto the HPLC for analysis.
To evaluate the hydrolysis rates of emtricitabine trimethyl lock prodrugs, HPLC coupled with UV detection was used with the following method (0% to 100% acetonitrile in Et3NHOAc (50 mM, pH 8) gradient) over 10 minutes at a flow rate of 3 mL min^−1, held at 100% acetonitrile for 3 minutes, ramped down to 5% acetonitrile over 0.2 minutes and then held for 2.8 minutes. Human plasma (Bioreclamation) or human skeletal muscle S9 (7.96 mg/mL, Bioreclamation) was pre-incubated at 37° C. for 5 minutes. Emtricitabine trimethyl lock compound 25 (1 mM) was added and the reaction was incubated at 37° C. […] The supernatant was diluted in Tris buffer (100 mM, pH 7.4) and injected onto the HPLC for analysis. […]

CCCCCCCCOC(=O)Nc1nc(=O)n([C@@H]2CS[C@H](COC(C)=O)O2)cc1F [Compound 20, ((2R,5S)-5-(5-fluoro-4-(((octyloxy)carbonyl)amino)-2-oxopyrimidin-1 (2H)-yl)-1,3-oxathiolan-2-yl)methyl acetate]
half-lives in human liver S9 [1]: comparable half-lives

CCCCCOC(=O)Nc1nc(=O)n([C@@H]2CS[C@H](COC(C)=O)O2)cc1F [Compound 17, ((2R,5S)-5-(5-fluoro-2-oxo-4-(((pentyloxy)carbonyl)amino)pyrimidin-1 (2H)-yl)-1,3-oxathiolan-2-yl)methyl acetate]
Km [1]: 1310 µM | Intrinsic Clearance [1]: 62.05 µL/min/mg | Vmax [1]: 4877 nmol/h/mg

CCCCCCCCOC(=O)Nc1nc(=O)n([C@@H]2CS[C@H](COC(=O)C(C)C)O2)cc1F [Compound 21, ((2R,5S)-5-(5-fluoro-4-(((octyloxy)carbonyl)amino)-2-oxopyrimidin-1 (2H)-yl)-1,3-oxathiolan-2-yl)methyl isobutyrate]
half-lives in human liver S9 [1]: comparable half-lives

CCCCCOC(=O)Nc1nc(=O)n([C@@H]2CS[C@H](COC(=O)OCCCCC)O2)cc1F [Compound 5, pentyl (5-fluoro-2-oxo-1-((2R,5S)-2-((((pentyloxy)carbonyl)oxy)methyl)-1,3-oxathiolan-5-yl)-1,2-dihydropyrimidin-4-yl)carbamate]
Km [1]: 600 µM | Intrinsic Clearance [1]: 26.33 µL/min/mg | Vmax [1]: 948 nmol/h/mg

Nc1nc(=O)n([C@@H]2CS[C@H](CO)O2)cc1F [Emtricitabine, emtricitabine]
metabolism by CYP enzymes (CYP enzymes): not metabolized | toxicity on CD4+ T cells (viability staining) (CD4+ T cells): little to no toxicity | metabolism by UGT enzymes (UGT enzymes): not metabolized

CCCCOC(=O)Nc1nc(=O)n([C@@H]2CS[C@H](COC(=O)OCCCC)O2)cc1F [Compound 4, butyl (1-((2R,5S)-2-(((butoxycarbonyl)oxy)methyl)-1,3-oxathiolan-5-yl)-5-fluoro-2-oxo-1,2-dihydropyrimidin-4-yl)carbamate]
half-life at 0.5 mM [2]: 5.8 min | half-life at 0.5 mM [3]: 4.6 min | half-life at 0.5 mM [4]: 10.3 min | half-life at 0.5 mM [5]: 59.2 min

CCCCCCCCOC(=O)Nc1nc(=O)n([C@@H]2CS[C@H](COC(=O)OCCCCCCCC)O2)cc1F [Compound 8, octyl (5-fluoro-1-((2R,5S)-2-((((octyloxy)carbonyl)oxy)methyl)-1,3-oxathiolan-5-yl)-2-oxo-1,2-dihydropyrimidin-4-yl)carbamate]
half-life at 0.5 mM [2]: 16.7 min | half-life at 0.5 mM [3]: 33.3 min | half-life at 0.5 mM [4]: 151 min | half-life at 0.5 mM [5]: 578 min

CC(=O)Oc1cc(C)cc(C)c1C(C)(C)CC(=O)Nc1ncnc2c1ncn2C[C@@H](C)OCP(=O)(N[C@@H](C)C(=O)OC(C)C)Oc1ccccc1 (stereo partly drawn) [Compound 26, (2S)-isopropyl (((((R)-1-(6-(3-(2-acetoxy-4,6-dimethylphenyl)-3-methylbutanamido)-9H-purin-9-yl)propan-2-yl)oxy)methyl)(phenoxy)phosphoryl)-L-alaninate]
half-life at 1 mM [6]: 66 min
